Values belong to the molecule of their own block, whether it stands above or below them.
Key:
ZBP1 [1] = test: ZBP1 protein in PVECs cocultured with neutrophils, Western blot; assay type: cell-based, mouse; details: DAPT
Experimental: (§1) Wild-type PVECs (5 × 10^5) were cocultured with sorted DLL4^+ neutrophils (5 × 10^5) or DLL4^– neutrophils (5 × 10^5) and then treated with different dosages of peptides or 10 μM DAPT (Thermo Fisher Scientific), 10 μM NDI (GenScript), or 10 μM NDI scramble (GenScript). Notch1-knockdown PVECs (5 × 10^5) were cocultured with sorted DLL4^+ neutrophils (5 × 10^5). After 16 hours, neutrophils were washed away by PBS, and PVECs were collected for further experiments. Cell viability was evaluated by propidium iodide staining using the FITC Annexin V Apoptosis Detection Kit I (catalog 556547, BD Pharmingen). Cell death was quantified as the percentage of propidium iodide–positive cells by flow cytometry.
(§2) PVECs and lung tissue were collected in previous steps. Whole-cell proteins were extracted, and the protein concentration was measured using an ABC protein assay kit (catalog 5000002, Bio-Rad). Proteins were separated using NuPAGE 4%–12% Bis-Tris gels (Invitrogen), transferred to PVDF membranes, and immunoblotted with the antibodies indicated in the figure legends according to the manufacturer’s recommendations. The ZBP1 antibody (catalog PA5-20455; 1:1,000) used in this study was obtained from Thermo Fisher Scientific, and the c-GSDMD (catalog 10137S; 1:250), GSDMD (catalog 39754S; 1:1000), c-caspase-3 (catalog 9661L; 1:250), caspase-3 (catalog 9662S; 1:1,000), p-MLKL (catalog 37333S; 1:250), MLKL (catalog 37705S; 1:1,000), N1ICD (c-Notch1) (catalog 4147S; 1:250), and Notch1 (catalog 3608S; 1:1,000) antibodies were obtained from Cell Signaling Technology. GAPDH (catalog 60004-1-Ig; 1:10,000) and β-actin (catalog A5441, Sigma-Aldrich; 1:5,000) were obtained from ProteinTech. After the blots were incubated with primary antibodies, the membranes were washed 3 times, and the blots were subsequently incubated with the corresponding fluorescent secondary antibody (LI-COR). Bands were detected using an Odyssey FC Dual-Mode Imaging system 2800 (LI-COR).

p-MLKL = test: p-MLKL/MLKL (necroptosis) in PVECs cocultured with neutrophils, Western blot; assay type: cell-based, mouse; details: DAPT
Experimental: as §1, §2

c-GSDMD = test: c/t GSDMD (pyroptosis) in PVECs cocultured with neutrophils, Western blot; assay type: cell-based, mouse; details: DAPT
Experimental: as §1, §2

ZBP1 [2] = test: ZBP1 mRNA in PVECs cocultured with neutrophils, RT-PCR (DAPT, NDI, peptides 1–5); assay type: cell-based, mouse; details: DAPT, DLL4^+ neutrophil–PVEC coculture
Experimental: Immortalized mouse (Mus musculus) lung endothelial cells with polyoma middle T (PVECs) were purchased from Applied Biological Materials Inc. (ABM) and grown in 1:1 PriGrow VI Medium and PriGrow IV Medium (ABM).
as §1
mRNA was extracted from lung tissues with TRIzol reagent (Invitrogen, Thermo Fisher Scientific). An equal amount ([…]) of mRNA was reverse-transcribed into cDNA using the reverse transcriptase enzyme (Invitrogen, Thermo Fisher Scientific). qPCR was performed from the diluted cDNA templates with forward and reverse primers (Supplemental Table 4) and SYBR Green PCR Master Mix (Applied Biosystems, Thermo Fisher Scientific) using an Applied Biosystems 7300 real-time PCR machine. Mouse β-actin served as an internal control gene for normalization. Relative expression of mRNA was represented as fold change in comparison with the sham group.

c-caspase-3 = test: c/t caspase-3 (apoptosis) in PVECs cocultured with neutrophils, Western blot; assay type: cell-based, mouse; details: DAPT
Experimental: as §1, §2

[3] = target: Recombinant murine (rm) Notch1 (murine) (UniProt Q01705); test: SPR; OpenSPR (Nicoya), HS-NTA sensor activated with NiCl2; rmNotch1 (25 ug/mL) immobilised on channel 2; rmDLL4 as analyte at 5, 12.5, 50 and 100 nM, 40 uL/min; PBS, 0.005% P20, pH 7.4; channel 1 subtracted; global 1:1 fit
[4] = target: Recombinant murine (rm) Notch1 (murine) (UniProt Q01705); test: SPR; as a1, same HS-NTA sensor with rmNotch1; rmDLL4 at all concentrations preincubated with 1 ug/mL NDI for 30 minutes at room temperature before injection; 40 uL/min, 20°C; global 1:1 fit
rmNotch1 = target: T1, rmNotch1 (Mus musculus, UniProt Q01705); test: BIAcore assay (surface plasmon resonance), rmDLL4 to immobilized rmNotch1; assay type: binding, murine; details: OpenSPR, HS-NTA sensor, rmDLL4 5–100 nM, PBS 0.005% P20 pH 7.4, 20°C, 1:1 fit; without NDI; read-out: KD between DLL4 and Notch1
T1 construct: purchased R&D Systems 5267-TK (rmNotch1); 1389-D4-050/CF (rmDLL4)
Experimental: To determine rmDLL4’s direct interaction with rmNotch1, surface plasmon resonance (OpenSPR, Nicoya) was performed. High-sensitivity nitrilotriacetic acid (HS-NTA) sensors were used. Binding reactions were performed in running buffer (PBS, 0.005% P20, pH 7.4). The HS-NTA sensor was first cleaned by injection with 10 mM HCl (150 μL) followed by injection of 150 μL of 350 mM EDTA. […] For the effect of NDI efficacy on rmDLL4 binding to rmNotch1, the same HS-NTA sensor was used. rmDLL4 at all the concentrations used for binding with rmNotch1 was preincubated with 1 μg/mL NDI for 30 minutes at room temperature, and then the complexes were injected to channels 1 and 2. Binding reactions were carried out with the same running buffer at a flow rate of 40 μL/min at 20°C. Channel 1 was used as a control to evaluate nonspecific binding. The real-time interaction data were analyzed by Trace Drawer (Nicoya). The signals from channel 1 were subtracted from channel 2 coated with the ligand for all samples. Data were globally fitted for 1:1 binding (one-to-one model).

[5] = DLL4^+ neutrophil–stimulated PVECs
[6] = DLL4^– neutrophil–treated PVECs

Sequence of Recombinant murine (rm) Notch1 (murine) (Q01705 19-2531): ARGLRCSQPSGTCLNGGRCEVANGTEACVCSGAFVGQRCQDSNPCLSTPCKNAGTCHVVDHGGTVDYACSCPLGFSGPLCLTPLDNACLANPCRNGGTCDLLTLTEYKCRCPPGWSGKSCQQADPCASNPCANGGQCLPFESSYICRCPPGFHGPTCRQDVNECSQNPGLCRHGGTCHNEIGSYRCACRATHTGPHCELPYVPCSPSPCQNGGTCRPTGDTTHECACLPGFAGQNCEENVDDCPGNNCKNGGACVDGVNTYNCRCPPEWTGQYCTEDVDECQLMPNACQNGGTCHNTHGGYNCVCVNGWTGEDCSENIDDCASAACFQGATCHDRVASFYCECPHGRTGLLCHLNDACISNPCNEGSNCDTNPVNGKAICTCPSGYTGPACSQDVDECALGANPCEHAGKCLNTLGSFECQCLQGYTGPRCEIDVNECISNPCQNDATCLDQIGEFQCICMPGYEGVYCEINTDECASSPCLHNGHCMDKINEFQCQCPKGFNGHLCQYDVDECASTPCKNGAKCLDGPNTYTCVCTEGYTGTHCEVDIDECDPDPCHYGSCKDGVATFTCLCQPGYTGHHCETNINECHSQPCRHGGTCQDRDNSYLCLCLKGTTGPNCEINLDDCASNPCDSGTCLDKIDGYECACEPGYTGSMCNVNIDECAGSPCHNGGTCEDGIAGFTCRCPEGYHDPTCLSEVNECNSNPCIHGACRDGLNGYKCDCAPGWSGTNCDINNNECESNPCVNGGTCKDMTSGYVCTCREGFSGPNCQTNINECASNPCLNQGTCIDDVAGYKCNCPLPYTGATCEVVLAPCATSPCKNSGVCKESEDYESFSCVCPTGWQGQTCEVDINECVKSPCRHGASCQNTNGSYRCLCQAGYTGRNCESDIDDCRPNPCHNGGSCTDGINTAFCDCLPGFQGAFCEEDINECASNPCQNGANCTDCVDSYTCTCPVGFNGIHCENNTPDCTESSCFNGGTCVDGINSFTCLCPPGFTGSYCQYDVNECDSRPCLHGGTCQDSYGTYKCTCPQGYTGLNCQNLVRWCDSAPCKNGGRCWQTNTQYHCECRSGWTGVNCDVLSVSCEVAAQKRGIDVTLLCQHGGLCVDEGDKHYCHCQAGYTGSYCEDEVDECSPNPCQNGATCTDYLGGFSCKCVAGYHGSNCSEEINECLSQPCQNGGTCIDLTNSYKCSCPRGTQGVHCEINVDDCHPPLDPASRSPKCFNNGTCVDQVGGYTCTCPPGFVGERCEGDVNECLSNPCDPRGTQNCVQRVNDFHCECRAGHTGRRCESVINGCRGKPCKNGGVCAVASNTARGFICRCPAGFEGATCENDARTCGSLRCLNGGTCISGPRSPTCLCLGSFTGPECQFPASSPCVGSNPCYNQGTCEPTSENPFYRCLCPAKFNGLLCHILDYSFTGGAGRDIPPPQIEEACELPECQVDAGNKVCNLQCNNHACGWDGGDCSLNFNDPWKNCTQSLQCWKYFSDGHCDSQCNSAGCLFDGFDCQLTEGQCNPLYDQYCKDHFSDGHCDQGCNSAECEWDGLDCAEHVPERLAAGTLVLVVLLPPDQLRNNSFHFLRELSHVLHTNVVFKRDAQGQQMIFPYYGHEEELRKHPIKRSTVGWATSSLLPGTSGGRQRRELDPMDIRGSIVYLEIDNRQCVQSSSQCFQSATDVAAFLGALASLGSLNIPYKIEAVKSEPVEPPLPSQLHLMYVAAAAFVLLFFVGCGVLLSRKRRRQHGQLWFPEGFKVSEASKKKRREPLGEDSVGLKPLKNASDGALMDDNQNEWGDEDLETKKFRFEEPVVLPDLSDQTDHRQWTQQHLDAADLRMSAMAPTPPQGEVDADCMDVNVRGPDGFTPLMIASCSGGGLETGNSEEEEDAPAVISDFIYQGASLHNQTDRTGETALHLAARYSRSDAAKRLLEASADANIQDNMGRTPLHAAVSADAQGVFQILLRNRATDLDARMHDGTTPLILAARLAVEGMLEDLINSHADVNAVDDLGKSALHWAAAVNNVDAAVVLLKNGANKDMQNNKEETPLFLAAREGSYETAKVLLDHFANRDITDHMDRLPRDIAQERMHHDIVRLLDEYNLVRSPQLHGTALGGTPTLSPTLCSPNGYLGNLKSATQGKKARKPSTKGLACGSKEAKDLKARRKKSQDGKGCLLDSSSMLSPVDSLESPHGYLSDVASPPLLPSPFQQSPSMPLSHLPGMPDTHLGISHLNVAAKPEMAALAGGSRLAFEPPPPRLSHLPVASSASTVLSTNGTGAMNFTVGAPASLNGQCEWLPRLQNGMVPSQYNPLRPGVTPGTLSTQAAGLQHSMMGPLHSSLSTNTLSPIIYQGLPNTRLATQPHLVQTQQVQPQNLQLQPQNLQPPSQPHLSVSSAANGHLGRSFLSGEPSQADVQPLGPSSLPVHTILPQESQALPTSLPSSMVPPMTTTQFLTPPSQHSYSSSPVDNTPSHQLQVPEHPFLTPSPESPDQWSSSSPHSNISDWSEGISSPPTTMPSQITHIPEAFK
T1 sequence (Q01705 with tags, fused parts or gaps limits assumed, one chain of several): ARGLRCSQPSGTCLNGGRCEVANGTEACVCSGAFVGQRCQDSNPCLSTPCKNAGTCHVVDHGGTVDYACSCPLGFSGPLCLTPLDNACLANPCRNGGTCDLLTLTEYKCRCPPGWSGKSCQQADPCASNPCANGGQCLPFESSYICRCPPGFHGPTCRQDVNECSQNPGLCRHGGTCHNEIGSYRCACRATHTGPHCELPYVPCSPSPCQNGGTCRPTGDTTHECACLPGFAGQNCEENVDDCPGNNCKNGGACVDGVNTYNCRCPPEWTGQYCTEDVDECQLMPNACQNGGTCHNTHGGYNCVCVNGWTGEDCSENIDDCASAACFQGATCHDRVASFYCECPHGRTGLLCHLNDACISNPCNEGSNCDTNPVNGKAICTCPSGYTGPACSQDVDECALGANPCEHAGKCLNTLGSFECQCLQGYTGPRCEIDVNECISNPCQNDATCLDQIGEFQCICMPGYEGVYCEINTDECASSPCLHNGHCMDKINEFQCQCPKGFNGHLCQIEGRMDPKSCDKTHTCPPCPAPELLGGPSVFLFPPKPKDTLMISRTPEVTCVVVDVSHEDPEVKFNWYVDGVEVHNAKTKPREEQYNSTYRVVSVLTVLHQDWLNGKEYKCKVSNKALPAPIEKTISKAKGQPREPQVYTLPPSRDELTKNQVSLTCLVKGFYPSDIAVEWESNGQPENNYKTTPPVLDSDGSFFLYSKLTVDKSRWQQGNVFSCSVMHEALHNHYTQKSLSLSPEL

Molecule: C[C@H](NC(=O)Cc1cc(F)cc(F)c1)C(=O)N[C@H](C(=O)OC(C)(C)C)c1ccccc1 [DAPT, N-[N-(3,5-difluorophenacetyl)-L-alanyl]-S-phenylglycine t-butyl ester, reference compound]
- effect on ZBP1 (ZBP1 [1]; [5]): significantly reduced the elevated expression
- effect on ZBP1 (ZBP1 [1]; [6]): did not significantly reduce
- effect on p-MLKL (p-MLKL; [5]): significantly reduced the elevated expression
- effect on p-MLKL (p-MLKL; [6]): did not significantly reduce
- effect on c-GSDMD (c-GSDMD; [5]): significantly reduced the elevated expression
- effect on c-GSDMD (c-GSDMD; [6]): did not significantly reduce
- effect on ZBP1 mRNA (ZBP1 [2]): reduced it to the baseline levels
- effect on c-caspase-3 (c-caspase-3; [5]): significantly reduced the elevated expression
- effect on c-caspase-3 (c-caspase-3; [6]): did not significantly reduce

- Kd [3]: 42.6 nM
- KD with NDI present [4]: 237 nM
Molecule: Recombinant murine (rm) DLL4 (from UniProt Q9JI71 27-532) (ligand)

- Kd (rmNotch1): 42.6 nM
B1: DLL4: Recombinant murine DLL4, R&D Systems (protein)
chain: GSGIFQLRLQEFVNQRGMLANGQSCEPGCRTFFRICLKHFQATFSEGPCTFGNVSTPVLGTNSFVVRDKNSGSGRNPLQLPFNFTWPGTFSLNIQAWHTPGDDLRPETSPGNSLISQIIIQGSLAVGKIWRTDEQNDTLTRLSYSYRVICSDNYYGESCSRLCKKRDDHFGHYECQPDGSLSCLPGWTGKYCDQPICLSGCHEQNGYCSKPDECICRPGWQGRLCNECIPHNGCRHGTCSIPWQCACDEGWGGLFCDQDLNYCTHHSPCKNGSTCSNSGPKGYTCTCLPGYTGEHCELGLSKCASNPCRNGGSCKDQENSYHCLCPPGYYGQHCEHSTLTCADSPCFNGGSCRERNQGSSYACECPPNFTGSNCEKKVDRCTSNPCANGGQCQNRGPSRTCRCRPGFTGTHCELHISDCARSPCAHGGTCHDLENGPVCTCPAGFSGRRCEVRITHDACASGPCFNGATCYTGLSPNNFVCNCPYGFVGSRCEFPVGLPPSFPWVA

Reference: article PMC12700550, “DLL4^+ neutrophils promote Notch1-mediated endothelial PANoptosis to exacerbate acute lung injury in sepsis” (The Journal of Clinical Investigation, 2025)
